Test results taken from patent publication US20210147571A1, “MONOCLONAL ANTIBODY TARGETING HUMAN TUMOR STEM CELLS AND USE THEREOF” (Suzhou Bojuhua Biomedical Technology Co. Ltd, priority 2017, published 2021).

Columns and labels:
[1] = tested on: Bel7402-V13 cells; assay: CCK8 drug resistance (cisplatin IC50) of flow-sorted cells; type: cell-based, human
Method: In order to detect the drug resistance of Hetumomab^+ liver cancer cells, Hetumomab^+ cells, parental cells and Hetumomab^− cells obtained by flow sorting sphere cells of human liver cancer cells Bel7402-V13 were seeded at 5000 cells/well in a 96-well plate. Each group of cells was cultured in a complete medium containing 8 different concentrations, i.e., 0 μg/mL, 0.0625 μg/mL, 0.125 μg/mL, 0.25 μg/mL, 0.5 μg/mL, 1 μg/mL, 2 μg/mL, and 4 μg/mL, of cisplatin. The medium was changed once every 3 days, and after 7 days, the OD value was measured by the CCK8 method to determine the IC50 reflecting drug resistance. […] Therefore, Hetumomab^+ liver cancer cells have stronger chemotherapeutic drug resistance than the parental cells and Hetumomab^− cells.

[2] = tested on: SPCA-1 cells; assay: as above; type: cell-based, human
Method: In order to detect the drug resistance of Hetumomab^+ lung cancer cells, Hetumomab^+ cells, parental cells and Hetumomab^− cells obtained by flow sorting sphere cells of human lung cancer cells SPCA-1 were seeded at 5000 cells/well in a 96-well plate. […] Therefore, Hetumomab^+ lung cancer cells have stronger chemotherapeutic drug resistance than the parental cells and Hetumomab^− cells.

[3] = tested on: Bel7402-V13 sphere cells; assay: inhibition of cisplatin resistance (CCK-8 IC50 after antibody treatment); type: cell-based, human; conditions: PBS-treated Bel7402-V13 sphere cells
Method: (§1) Drug resistance is one of the biological features of tumor stem cells. […] Each group of cells was cultured with a medium containing 9 different concentrations, i.e., 0, 0.0625, 0.125, 0.25, 0.5, 1, 2, 4, and 8 μg/mL, of cisplatin. The complete medium containing cisplatin was replaced once every 48 hours. After 5 days, CCK-8 reagent was added according to the instructions of CCK-8 kit. OD450 absorbance values were measured, and the IC50 values for each group were calculated.

[4] = tested on: SPCA-1 cells; assay: as above; type: cell-based, human; conditions: SPCA-1 control group
Method: as §1

[5] = tested on: Bel7402-V13 transplanted tumor; assay: human liver cancer transplanted tumor treated with Hetumomab; type: in vivo, nude mice; conditions: cisplatin 0.3 mg/kg
Method: Bel7402-V13 sphere cells were inoculated subcutaneouly to nude mice at 30,000 cells/mouse. The nude mice were randomly divided into 6 groups (6 per group) as follows: the chemotherapy group (0.3 mg/kg cisplatin, 6 mice); the high dose antibody group (10 mg/kg, 6 mice); the high dose antibody+chemotherapy group (6 mice); the low dose antibody group (2.5 mg/kg, 6 mice); the low dose antibody+chemotherapy group (6 mice); and the PBS group (6 mice). The treatments were started the next day after the cells were inoculated, twice a week, and terminated after 5 weeks. The major and minor diameters of the subcutaneously transplanted tumor were measured twice a week. The tumor volume was calculated with the formula V=(π/6)×(major diameter×minor diameter×minor diameter), and the changes in tumor volume and growth rate of each group were observed. […] Tumor growth rate=(Vt−V0)/number of days, where Vt is the tumor volume at each measurement, and V0 is the tumor volume […] ([…]).

[6] = tested on: SPCA-1 transplanted tumor; assay: human lung cancer transplanted tumor treated with Hetumomab; type: in vivo, nude mice; conditions: cisplatin 0.3 mg/kg, day 28
Method: Specifically, the sphere cells of the human lung cancer cell line SPCA-1 were harvested and inoculated in nude mice at 2.5×10^5 cells/mouse. The mice were divided into following 5 groups, with 5 mice in each group: the PBS control group; the chemotherapy group (cisplatin 0.3 mg/kg); the high dose antibody Hetumomab group (40 mg/kg); the medium dose antibody Hetumomab group (10 mg/kg); and the low dose Hetumomab group (2.5 mg/kg). The antibody treatment was started on the second day after inoculation of lung cancer cells. The experimental groups and the control group were treated by intraperitoneal injection. The treatments were performed for 28 days after inoculation. The chemotherapeutic drug group was treated twice a week. The major and minor diameters of the subcutaneously transplanted tumors were measured twice a week. The tumor volume was calculated with the formula V=(π/6)×(major diameter×minor diameter×minor diameter). The change in tumor volume in each group was observed.

[7] = tested on: SNU-5 transplanted tumor; assay: human gastric cancer transplanted tumor treated with Hetumomab; type: in vivo, nude mice; conditions: cisplatin 0.3 mg/kg, one month
Method: Specifically, the sphere cells of the human gastric cancer cell line SNU-5-V13 were harvested and inoculated in nude mice at 2.5×10^5 cells/mouse. The mice were divided into following 7 groups, with 8 mice in each group: the PBS control group; the mouse IgG control group; the chemotherapy group (cisplatin 0.3 mg/kg); the high dose antibody Hetumomab group (20 mg/kg); the low dose Hetumomab group (1.25 mg/kg); the high dose Hetumomab+chemotherapeutic drug group; and the low dose Hetumomab+chemotherapeutic drug group. The antibody treatment was started on the second day after inoculation of gastric cancer cells.
The experimental groups and the control group were treated by intraperitoneal injection. The treatments were performed for one month. The chemotherapeutic drug group was treated for 4 weeks, twice a week. The major and minor diameters of the subcutaneously transplanted tumor were measured twice a week. The tumor volume was calculated with the formula V=(π/6)×(major diameter×minor diameter×minor diameter). The change in tumor volume in each group was observed.

[8] = tested on: Bel7402-V13 transplanted tumor; assay: human liver cancer transplanted tumor treated with Hetuzumab H5L11; type: in vivo, nude mice; conditions: cisplatin 0.3 mg/kg, day 36
Method: Specifically, the sphere cells of the human liver cancer cell line Bel7402-V13 were harvested and inoculated subcutaneouly into nude mice at 30000 cells/mouse. […] The antibody treatments were started on the second day after inoculation of cancer cells. The experimental group and the control group were treated by intraperitoneal injection. The antibody treatments were performed for 36 days. The chemotherapeutic drug group was treated for 4 weeks, twice a week. The major and minor diameters of the subcutaneously transplanted tumor were measured twice a week. The tumor volume was calculated with the formula V=(π/6)×(major diameter×minor diameter×minor diameter). The change in tumor volume in each group was observed.

[9] = tested on: Hetumomab target antigen on cells; assay: cell ELISA affinity of humanized chain versions; type: binding, human; conditions: light chain mutant combined with heavy chain of Hetuximab
Text: Based on the H1 heavy chain sequence, two other heavy chain mutants were designed as initial humanization: H2 and H3. The degree of humanization of these versions was in descending order. […] Since H1 was the most humanized version in which the framework regions were all humanized, H1 was finally determined as the preferred humanization molecular template.
Based on the L1 with fully humanized FR region, L2 and L3 were designed, and the degree of humanization of the three version was also in descending order. […] In order to find out which key amino acids were mutated during humanization, back mutations were performed, and nine different mutants (L4-L12) were prepared.
Therefore, L6, L11, and L12 were finally selected for optimization screening of the best light chain humanized version.
However, glycosylated isomers of Hetuzumab H1 heavy chain were confirmed by antibody sequence analysis and reductive electrophoresis analysis. In the analysis of H1 heavy chain expression products by electrophoresis, H1L6, H1L11, and H1L12 were all shown with weak sub-bands visible below the main band of the heavy chain. […] This may cause serious quality problems of uniformity, which is very unfavorable for drug development. […] H4 and H5 were combined with L11, respectively, and analyzed by electrophoresis after expression. […]

Molecule | IC50 of cisplatin ([1]; Bel7402-V13 Hetumomab+ cells, 7 days) | IC50 of cisplatin ([1]; Bel7402-V13 Hetumomab− cells) | IC50 of cisplatin ([1]; Bel7402-V13 Parental Cells) | IC50 of cisplatin ([2]; SPCA-1 Hetumomab+ cells) | IC50 of cisplatin ([2]; SPCA-1 Hetumomab− cells) | IC50 of cisplatin ([2]; SPCA-1 Parental Cells) | IC50 of cisplatin, control group [3] | IC50 of cisplatin, control group [4] | tumor volume inhibition rate ([5]; at drug withdrawal after 5 weeks) | tumor growth rate ([5]; month after drug withdrawal) | tumor volume inhibition rate ([5]; one month after drug withdrawal) | Tumor Volume Inhibition Rate (%) [6] | Tumor Volume Inhibition Rate (%) [7] | Tumor Volume Inhibition Rate (%) [8] | affinity by cellular ELISA [9]
N.N.[Cl][Pt][Cl] [cisplatin] | 0.739 µg/mL | 0.313 µg/mL | 0.502 µg/mL | 0.707 µg/mL | 0.180 µg/mL | 0.513 µg/mL | 0.9 µg/mL | 0.351 µg/mL | 83.5% | 0.154 cm^3/day | 48.6% | 24.91% | 33.16% | 14.52% | –
L11: humanized light chain version L11 (SEQ ID NO:47), higher humanized version based on L6 (protein, Humanized light chain L11) light: DIVMTQTPFSNPVTLGQPASISCRSSKSLLHSNGITYLYWFLQKPGQSPQLLIYQMSNLASGVPDRFSGSGSGTDFTLKISRVEAEDVGVYYCAQNLELYTFGQGTKVEIKRTVAAPSVFIFPPSDEQLKSGTASVVCLLNNFYPREAKVQWKVDNALQSGNSQESVTEQDSKDSTYSLSSTLTLSKADYEKHKVYACEVTHQGLSSPVTKSFNRGEC | – | – | – | – | – | – | – | – | – | – | – | – | – | – | close to that of L6
